Laboratory results as given in patent US20030008857A1, “Photodynamic therapy (PDT) in combination with factors that bind cell surface apoptosis-inducing receptors” (priority 1999, published 2003).
“Also recorded” adds a separate entry of the source.

Assays:
Type in all cases: cell-based, human
cytochrome c = assay: Cytochrome c in cytosolic extracts of Jurkat cells (immunoblot)
Protocol: (§1) The human Jurkat T cell line containing a neomycin resistance gene was obtained from Dr. Charles Rudin (University of Chicago). Cells were maintained in RPMI 1640 medium containing 10% heat-inactivated fetal calf serum (FCS) with penicillin (100 U/mL), streptomycin (100 μg/mL), 20 mM HEPES, 2 mM L-glutamine and G418 (1 μg/ml) purchased from Gibco BRL (Burlington, Ontario) in a CO2 incubator at 37° C. To elicit apoptosis with PDT, Jurkat cells were incubated with different amounts of liposomally formulated benzoporphyrin derivative monoacid ring A (BPD-MA, verteporfin, QLT PhotoTherapeutics, Inc., Vancouver, Canada) for one hour at 37° C. under light-protected conditions. The culture medium used for experiments was identical to that used for the passage of the cells except that FCS was used at a concentration of 5%. Experiments were conducted either in 6-well culture plates at 5×10^6 cells in a volume of 4 ml per well or in 96-well microtiter plates at 1×10^5 cells per well at 0.2 ml per well. Cells were irradiated with light of a wavelength of 690 nm delivered at 65-73 mW/sec from light emitting diodes (LED) to achieve a total light dose of 5 J/cm^2. Cells were returned to the incubator until required for analysis.
(§2) FasL and TRAIL as used were recombinant preparations. FasL was obtained from Upstate Biotechnology (Lake Placid NY) and corresponded to amino acids 103-281 of the soluble domain of human FasL. TRAIL was obtained from BIOMOL Research Laboratories (Plymouth Meeting, Pa.) and corresponded to residues 114-281 of the soluble domain of human TRAIL. FasL and TRAIL were usually added immediately following the treatment of cells with PDT, although in one series of experiments these factors were added at 1, 2 or 3 hours post-irradiation.
To obtain cytosolic extracts, cells were treated with 0.6 ml of ice-cold buffer [250 mM sucrose, 20 mM Hepes pH 7.4, 10 mM KCl, 1.5 mM MgCl2, 1 mM EGTA, 1 mM EDTA, 1 mM dithiothreitol, 1 mM PMSF and aprotinin (10 μg/ml)]. Cells were disrupted by 20 strokes with the B pestle of a Kontes™ dounce homogenizer. Supernatant collected following centrifugation at 10000×g was further centrifuged at 100000×g for 1 h at 4° C. in a Beckman Optima™ ultracentrifuge using a TL-100 rotor. (Granville et al., “Rapid cytochrome c release, activation of caspases 3, 6, 7 and 8 followed by Bap31 cleavage in HeLa cells treated with photodynamic therapy”, FEBS Lett. 437, 5-10 (1998)).
To evaluate the activation state of different caspases and the status of other cellular proteins, whole cell lysates were separated by sodium dodecyl sulphate polyacrylamide gel electrophoresis (SDS-PAGE). […]

Jurkat T cells = assay: DNA fragmentation (sub-diploid DNA) by PI staining and flow cytometry; details: for cells exhibiting DNA fragmentation (sub-diploid DNA levels): 690 nm light 5 J/cm^2, analysis 24 hours later
Protocol: as §1, §2
The proportion of cells containing sub-diploid levels of DNA 24 hours following treatment was determined using a propidium iodide (“PI”) fluorescence analysis procedure as described by Telford et al. (“Rapid Quantitation of Apoptosis in Pure and Heterogeneous Cell Populations Using Flow Cytometry” J. Immunol Methods 172:1-6 (1994)) or by Darzynkieicz et al. (“Features of Apoptotic Cells Measured by Flow Cytometry”, Cytometry, 13:795-808 (1992)).
Twenty four hours following PDT, 5×10^5 cells were washed twice with ice-cold PBS and then permeablized and fixed in 80% ethanol at 4° C. for one hour. The cells were again washed in ice-cold PBS and stained with PI (50 μg/mL) in PBS with simultaneous deoxyribose nuclease-free ribonuclease A (5 U/mL) treatment. These samples were analyzed by flow cytometry. The percentage of apoptotic cells was calculated using single color analysis for PI fluorescence with a Coulter XL flow cytometer (Coulter Electronics, Inc., Hialeah, Fla.). […] The degree of separation between the apoptotic population and the G0/G1 peak is readily apparent and the percentage of apoptotic cells is determined from the subsequent histogram.

caspase-3, -6 and -8 = assay: Caspase cleavage activity of cell extracts, statements covering DEVD, VEID and IETD peptides together; details: for protease activity on DEVD, VEID and IETD peptides, single treatment: FIG. 7: verteporfin 5 ng/ml with light, FasL 7.5 ng/ml or TRAIL 20 ng/ml alone
Protocol: as §1, §2
Whole cell lysates were prepared by washing 1×10^7 cells per sample twice with ice-cold PBS. Cells were disrupted with 1 mL of lysis buffer [1% Nonidet P-40 detergent (NP-40), 20 mM Tris-HCl, pH 8.0, 137 mM NaCl, 10% glycerol, 1 mM phenylmethylsulfonyl fluoride (PMSF) aprotinln (0.15 U/mL) and 1 mM sodium orthovanadate] for 20 minutes on ice. Lysates were centrifuged for 10 minutes at 15,800×g at 4° C.
These sequences are denoted by letter codes for each amino acid. To evaluate relative DEVDase (caspases 3 and 7), VEIDase (caspase 6) and IETDase (caspase 8) cleavage activity, Jurkat cell lysates were incubated with caspase-specific fluorescent substrates as described by Granville et al. (“Photodynamic therapy induces caspase-3 activation in HL-60 cells”, Cell Death Differ., 4, 623-629 (1997)). Briefly, lysates were incubated with reaction buffer (20 mM Tris pH 7.5, 137 mM NaCl, 1% NP-40, 10% glycerol) containing 100 μM of the caspase substrates Ac-DEVD-AMC (Calbiochem, Cambridge, Mass.), Ac-VEID-AMC (Calbiochem, Cambridge, Mass.), Ac-lETD-AMC (BIOMOL, Plymouth Meeting Pa.), and Ac-LEHD-AMC (Calbiochem, Cambridge, Mass.). The letter codes for the amino acid residues present within the inhibitor peptides are as following: D=aspartic acid; E=glutamic acid; H=histidine; I=isoleucine; T=threonine; V=valine. The reaction mixture was incubated at 37° C. for 1 (DEVD.AMC) or 24 (VEID.AMC and IETH.AMC) h and fluorescence was measured using an excitation at 380 nm and an emission wavelength of 460 nm with a CytoFluor™ 2350 fluorescent measuring system (Perseptive Biosystems, Burlington, Ont).

TRAIL: recombinant, residues 114-281 of the soluble domain of human TRAIL (BIOMOL)
cytochrome c in cytosolic extracts, factor alone (cytochrome c; FasL 7.5 ng/ml or TRAIL 20 ng/ml, 3 hours): background levels of cytochrome c
cytochrome c in cytosolic extracts, factor with PDT (cytochrome c; PDT in combination with TRAIL 20 ng/ml or FasL 7.5 ng/ml, 3 hours): readily detectable amounts of cytochrome c
increase in proportion of cells with sub-diploid DNA versus light-treated control cells (Jurkat T cells; TRAIL 20 ng/ml added after PDT with verteporfin 2 ng/ml, 5 J/cm^2, 24 hours): approximately eight-fold
increase in the number of cells displaying DNA fragmentation (Jurkat T cells; TRAIL 20 ng/ml by itself, 24 hours (FIG. 2)): two-fold
proportion of cells with sub-diploid DNA compared with PDT alone (Jurkat T cells; TRAIL 20 ng/ml or FasL 7.5 ng/ml added after PDT with verteporfin 0.5 and 1 ng/ml): a greater proportion of cells contained a sub-diploid level of DNA
nature of the combined effect on DNA fragmentation (Jurkat T cells; TRAIL 20 ng/ml with PDT (verteporfin 2 ng/ml) versus each alone): greater than additive
cells with induced DNA fragmentation (Jurkat T cells; TRAIL 1000 ng/ml, within 24 hours): approximately 60%
DNA fragmentation induced by the factor without PDT across addition times (Jurkat T cells; added at 5 minutes, 1, 2 or 3 hours, FasL 7.5 ng/ml, TRAIL 20 ng/ml, individually or in combination): a comparable level of DNA fragmentation
change of the combined effect with PDT on DNA fragmentation (Jurkat T cells; factor added at 3 hours post-PDT (verteporfin 2 ng/ml)): a modest decline
capacity to accentuate PDT-mediated apoptosis (DNA fragmentation) (Jurkat T cells; factor added up to 3 hours after PDT (verteporfin 2 ng/ml), FasL 7.5 ng/ml, TRAIL 20 ng/ml): still demonstrable
caspase activity compared with the treatments given independently (caspase-3, -6 and -8; FIG. 7: factor combined with PDT (verteporfin 5 ng/ml, 5 J/cm^2), 3 hours): higher caspase activity
protease activity on DEVD, VEID and IETD peptides, single treatment (caspase-3, -6 and -8; 3 hours): modestly increased
caspase activity compared with PDT or TRAIL applied independently (caspase-3, -6 and -8; TRAIL 20 ng/ml plus PDT, each verteporfin concentration, 3 hours): higher
protease activity compared with FasL or TRAIL alone (caspase-3, -6 and -8; factor plus verteporfin in the absence of light irradiation): no different

benzoporphyrin derivative monoacid ring A [verteporfin, reference compound]
cytochrome c in cytosolic fractions, immediately versus three hours after photoirradiation (cytochrome c; verteporfin and light 5 J/cm^2): comparable levels of cytochrome c
cytochrome c within the cytosolic fraction (cytochrome c; verteporfin and light 5 J/cm^2, extracts prepared immediately afterward): immediate appearance of cytochrome c
cells exhibiting DNA fragmentation relative to cells treated with light alone (Jurkat T cells; verteporfin 2 ng/ml, light 5 J/cm^2, 24 hours): Five times
cells exhibiting DNA fragmentation (sub-diploid DNA levels) (Jurkat T cells; verteporfin 5 ng/ml): a minor proportion of cells
cells exhibiting DNA fragmentation (sub-diploid DNA levels) (Jurkat T cells; verteporfin 15 ng/ml): the vast majority of cells
protease activity on DEVD, VEID and IETD peptides, single treatment (caspase-3, -6 and -8; 3 hours): modestly increased
verteporfin concentration at which the effect of PDT on caspase activity was greatest (caspase-3, -6 and -8; light 5 J/cm^2, extracts 3 hours post-PDT): 5 ng/mL
effect of PDT alone on DEVDase-, VEIDase- and IETDase-like activity (caspase-3, -6 and -8; verteporfin and light 5 J/cm^2, no FasL or TRAIL, 3 hours post-PDT): promoted DEVDase-like, VEIDase-like and IETDase-like activity; also recorded: increased levels of DEVDase-like, VEIDase-like and IETDase-like activity
